Source: patent US20220339160A1, “ADENOSINE RECEPTOR ANTAGONIST” (priority 2019, published 2022)
Where two headings read alike, the source gives them in different places.

Tests used:
A2B receptor = molecular target: T1, A2B receptor (Homo sapiens, UniProt P29275); experiment: cell-based
T1 sequence (P29275 1-332): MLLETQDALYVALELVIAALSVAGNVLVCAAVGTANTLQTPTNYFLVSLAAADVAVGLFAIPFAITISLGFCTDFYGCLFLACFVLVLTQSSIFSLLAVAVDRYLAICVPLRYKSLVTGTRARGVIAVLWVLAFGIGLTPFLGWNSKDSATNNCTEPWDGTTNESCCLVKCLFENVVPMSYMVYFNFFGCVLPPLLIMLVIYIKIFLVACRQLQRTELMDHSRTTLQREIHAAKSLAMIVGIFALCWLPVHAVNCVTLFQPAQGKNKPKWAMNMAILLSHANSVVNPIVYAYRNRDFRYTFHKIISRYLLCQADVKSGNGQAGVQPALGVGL
Experimental: (§1) A2a/A2B Receptor Antagonist Functional Assay Test:
The A2A cell line was derived from PerkinElmer (Product ID: ES-011-C); the A2B cell line was derived from PerkinElmer (Product ID: ES-013-C). […] The corresponding amount of 5′-N-ethylcarboxamidoadenosine at EC80 activation concentration was transferred to each test well, and incubated for another 30 minutes at 37° C., 5% CO2, 95% humidity, then Eu-cAMP tracer working solution and Ulight-anti-cAMP working solution were added to the cell culture plate at 5 uL/well in sequence, and the cell plate fluorescence was read with Envision (excitation wavelength: 320 nm, emission wavelength: 665 nm and 615 nm). The corresponding inhibition rate in each well was obtained according to the following formula, and a sigmoidal dose-inhibition rate curve was plotted using a non-linear regression model to calculate the IC50 value.

A2A receptor = A2A receptor (Homo sapiens, UniProt P29274); experiment: A2A receptor antagonist functional assay (cAMP, A2A cell line); type: cell-based
A2A receptor, sequence (P29274 whole entry): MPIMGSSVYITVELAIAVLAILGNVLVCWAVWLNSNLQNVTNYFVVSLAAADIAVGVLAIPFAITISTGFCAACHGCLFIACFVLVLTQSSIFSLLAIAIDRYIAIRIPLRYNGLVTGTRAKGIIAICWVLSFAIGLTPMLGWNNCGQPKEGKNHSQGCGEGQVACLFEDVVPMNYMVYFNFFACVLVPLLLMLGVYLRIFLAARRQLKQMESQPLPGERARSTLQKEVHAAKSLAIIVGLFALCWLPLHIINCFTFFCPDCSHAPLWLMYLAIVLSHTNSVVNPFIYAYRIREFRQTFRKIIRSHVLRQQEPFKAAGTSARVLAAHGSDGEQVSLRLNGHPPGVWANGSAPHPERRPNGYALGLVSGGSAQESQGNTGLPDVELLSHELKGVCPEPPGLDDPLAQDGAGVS
Experimental: as §1
The A2A cell line was derived from PerkinElmer (Product ID: ES-011-C); the A2B cell line was derived from PerkinElmer (Product ID: ES-013-C). The experimental procedure was referred to ACS Medicinal Chemistry Letters (2011) 2, 213-218; the specific test was completed by Pharmaron Beijing Co., Ltd. with the following steps: 10 nL of compound stock in DMSO (10 mM) followed by 10 μL of A2A or A2B cell suspension (30000 cells/mL) were transferred to assay wells of a 384-well plate at room temperature and incubated for 20 minutes at room temperature. The corresponding amount of 5′-N-ethylcarboxamidoadenosine at EC80 activation concentration was transferred to each test well, and incubated for another 30 minutes at 37° C., 5% CO2, 95% humidity, then Eu-cAMP tracer working solution and Ulight-anti-cAMP working solution were added to the cell culture plate at 5 uL/well in sequence, and the cell plate fluorescence was read with Envision (excitation wavelength: 320 nm, emission wavelength: 665 nm and 615 nm). The corresponding inhibition rate in each well was obtained according to the following formula, and a sigmoidal dose-inhibition rate curve was plotted using a non-linear regression model to calculate the IC50 value.

[1] = A2B cell line (PerkinElmer ES-013-C), 5'-N-ethylcarboxamidoadenosine at EC80, cAMP readout, read-out: A2B Antagonistic function IC50
[2] = A2A cell line (PerkinElmer ES-011-C), 5'-N-ethylcarboxamidoadenosine at EC80, cAMP readout, read-out: A2A Antagonistic function IC50

## Cc1ccc(-c2nc(N)nc3c(Cc4cc(N)c(F)cc4F)cnn23)o1 [Compound 28]
A2B receptor; [1]
  IC50: 7.7 nM
A2A receptor
  IC50: 1.6 nM

## Cc1ccc(-c2nc(N)nc3c(Cc4ccc(F)cc4)cnn23)o1 [Compound 1]
A2B receptor
  IC50: 16 nM
A2A receptor
  IC50: 3.3 nM

## Cc1ccc(-c2nc(N)nc3c(Cc4cccc(C(C)(C)O)n4)cnn23)o1 [Compound 19]
A2B receptor
  IC50: 70.5 nM
A2A receptor
  IC50: 1.7 nM

## COCc1cccc(Cc2cnn3c(-n4ccc(C)n4)nc(N)nc23)n1 [Compound 4]
A2A receptor
  IC50: 17 nM

## COCCNc1cccc(Cc2cnn3c(-c4ccc(C)o4)nc(N)nc23)n1 [Compound 21]
A2B receptor; [1]
  IC50: 36 nM
A2A receptor
  IC50: 4.7 nM

## Nc1cccc(Cc2cnn3c(-c4ccco4)nc(N)nc23)n1 [Compound 23]
A2B receptor; [1]
  IC50: 13 nM
A2A receptor
  IC50: 46 nM

## COCCOCc1cccc(Cc2cnn3c(-c4ccc(C)o4)nc(N)nc23)n1 [Compound 7]
A2B receptor
  IC50: 103 nM
A2A receptor; read-out: A2A Antagonistic function IC50
  IC50: 7.1 nM

## COCc1cccc(Cc2cnn3c(-c4ccc(C)o4)nc(N)nc23)n1 [Compound 2]
A2B receptor
  IC50: 25 nM
A2A receptor; [2]
  IC50: 1.8 nM

## Cc1ccc(-c2nc(N)nc3c(CC4CCCC4)cnn23)o1 [Compound 14]
A2A receptor
  IC50: 10.4 nM

## Cc1ccc(-c2nc(N)nc3c(Cc4cccc(N)n4)cnn23)o1 [Compound 22]
A2B receptor; [1]
  IC50: 1.6 nM
A2A receptor
  IC50: 5.8 nM

## Cc1ccc(-c2nc(N)nc3c(Cc4cccc(N)c4)cnn23)o1 [Compound 24]
A2B receptor; [1]
  IC50: 7.9 nM
A2A receptor
  IC50: 3 nM

## Cc1ccc(-c2nc(N)nc3c(Cc4ccccc4N)cnn23)o1 [Compound 27]
A2B receptor; [1]
  IC50: 9.7 nM
A2A receptor
  IC50: 1.9 nM

## Cc1ccc(-c2nc(N)nc3c(Cc4ccc(F)cc4F)cnn23)o1 [Compound 10]
A2B receptor; [1]
  IC50: 16.4 nM
A2A receptor
  IC50: 5 nM

## Cc1ccc(-c2nc(N)nc3c(Cc4cccc(COC5CC5)n4)cnn23)o1 [Compound 9]
A2B receptor; [1]
  IC50: 51 nM
A2A receptor
  IC50: 3.6 nM

## Cc1ccc(-c2nc(N)nc3c(Cc4cccc(CBr)n4)cnn23)o1 [Compound 6]
A2A receptor
  IC50: 10.2 nM

## Cc1ccc(-c2nc(N)nc3c(Cc4c(F)cc(F)cc4F)cnn23)o1 [Compound 12]
A2B receptor; [1]
  IC50: 3.8 nM
A2A receptor
  IC50: 1.5 nM

## Cc1ccc(N)c(Cc2cnn3c(-c4ccc(C)o4)nc(N)nc23)c1 [Compound 44]
A2B receptor; [1]
  IC50: 155 nM
A2A receptor
  IC50: 6.2 nM

## Cc1ccc(-c2nc(N)nc3c(CC4CCCCC4)cnn23)o1 [Compound 13]
A2A receptor
  IC50: 5.7 nM

## COCCNCc1cccc(Cc2cnn3c(-c4ccc(C)o4)nc(N)nc23)n1 [Compound 8]
A2B receptor; [1]
  IC50: 117 nM
A2A receptor
  IC50: 31 nM

## Cc1ccc(-c2nc(N)nc3c(Cc4cccc(CO)n4)cnn23)o1 [Compound 5]
A2B receptor
  IC50: 16.7 nM
A2A receptor; [2]
  IC50: 5.3 nM

## Cc1ccc(-c2nc(N)nc3c(Cc4cccc(N)c4)c(F)nn23)o1 [Compound 47]
A2B receptor; [1]
  IC50: 4 nM
A2A receptor
  IC50: 1.4 nM

## Cc1ccc(-c2nc(N)nc3c(Cc4cccc(N)c4)c(C)nn23)o1 [Compound 45]
A2B receptor; [1]
  IC50: 6.2 nM
A2A receptor
  IC50: 1.9 nM

## Cc1ccc(-c2nc(N)nc3c(Cc4ccc(N)c(C)c4)cnn23)o1 [Compound 29]
A2B receptor; [1]
  IC50: 15.3 nM
A2A receptor
  IC50: 5.5 nM

## Cc1ccc(-c2nc(N)nc3c(Cc4ccc(N)cc4)cnn23)o1 [Compound 26]
A2B receptor; [1]
  IC50: 2.7 nM
A2A receptor
  IC50: 17.4 nM

## Nc1cccc(Cc2cnn3c(-c4ccco4)nc(N)nc23)c1 [Compound 25]
A2B receptor; [1]
  IC50: 60 nM
A2A receptor
  IC50: 35 nM

## Cc1ccc(-c2nc(N)nc3c(Cc4ccc(F)cc4C)cnn23)o1 [Compound 11]
A2B receptor; [1]
  IC50: 420 nM
A2A receptor
  IC50: 39 nM

## COc1cccc(Cc2cnn3c(-c4ccc(C)o4)nc(N)nc23)n1 [Compound 16]
A2B receptor; [1]
  IC50: 18.6 nM
A2A receptor
  IC50: 2.3 nM

## Cc1ccc(-c2nc(N)nc3c(Cc4cccc(N)c4)c(Cl)nn23)o1 [Compound 46]
A2B receptor; [1]
  IC50: 4.6 nM
A2A receptor
  IC50: 1.5 nM

## Cc1ccc(-c2nc(N)nc3c(Cc4cccc(CO[C@H]5CCOC5)n4)cnn23)o1 [Compound 18]
A2B receptor
  IC50: 108 nM
A2A receptor; [2]
  IC50: 9.1 nM

## Cc1ccc(-c2nc(N)nc3c(Cc4ccc(N)c(C)c4)c(C)nn23)o1 [Compound 30]
A2A receptor
  IC50: 5 nM

## Cc1ccc(-c2nc(N)nc3c(Cc4cccc(NCc5ccccc5)n4)cnn23)o1 [Compound 20]
A2B receptor
  IC50: 26 nM
A2A receptor
  IC50: 5.5 nM

## COCc1cccc(Cc2cnn3c(-c4cccs4)nc(N)nc23)n1 [Compound 3]
A2A receptor
  IC50: 96 nM

## Cn1ccc(-c2nc(N)nc3c(Cc4cccc(N)c4)cnn23)n1 [Compound 48]
A2B receptor; [1]
  IC50: 83.5 nM
A2A receptor
  IC50: 29.1 nM

## Cc1ccc(-c2nc(N)nc3c(CC4CCC4)cnn23)o1 [Compound 15]
A2A receptor
  IC50: 16 nM

## Cc1ccc(-c2nc(N)nc3c(Cc4cccc(CO[C@H]5CCOC5)[n+]4[O-])cnn23)o1 [Compound 17]
A2B receptor; [1]
  IC50: 1030 nM
A2A receptor
  IC50: 90 nM
